Key:
SpADH2 [1] = assay: Preliminary evaluation of NCB usage in oxidation of syringyl alcohol (HPLC); assay type: biochemical, Sphingobium sp. SYK-6; conditions: preliminary assay: 1a 1 mM, NCB 10 mM, pH 7.0, 30℃, 1 h
Protocol: Sphingobium sp. SYK-6 belongs to genus Sphingomonas, and a search in UniProtKB identified 19 ADHs from this strain, including 5 PQQ-dependent and the remaining NAD^+/NADP^+-dependent enzymes. Two sequences annotated as aryl-alcohol dehydrogenases (SLG_34580 and SLG_24930) (Table. S1) were selected for heterologous expression (Fig. S1) and named SpADH1 and SpADH2, respectively. Their ability to utilize NCBs was assessed by oxidation of syringyl alcohol (1a) to produce syringaldehyde (1b) (Fig. 1a).
Fig. 1 (a) Reaction scheme of SpADH2-catalyzed oxidation of syringyl alcohol. (b) Specific activity of SpADH2 toward four NCBs. The evaluation of NCBs usage by SpADH2 was carried out under following conditions: 50 mM PBS buffer (pH 7.0) and 30℃, with 1a (1 mM) as substrate and 4 typical NCBs (10 mM) as cofactor. A total of 0.1 mg/mL enzyme was added to a 200 µL reaction mixture, and was analyzed by HPLC after 1 h reaction
Reaction samples were analyzed using Agilent 1260 Infinity II LC system under reversed phase condition. Column: Agilent C18 column. Analytical conditions for 1a and 1b: mobile phase: 50% water: 50% acetonitrile. The retention time for standard product 1b was 3.27 min, under flow rate of 1 mL·min^− 1and temperature of 30°C (Fig. S4).

[2] = system: SpADH2 variant H43L/A290I; assay: Cofactor spectrum (HPLC specific activity), variant H43L/A290I; assay type: biochemical, Sphingobium sp. SYK-6; conditions: 1a 5 mM, cofactor 7.5 mM, pH 7.5, 30℃, 5 µg enzyme
Protocol: (§1) Fig. 8 Cofactor spectrums of SpADH2 and its variants. The darkness of color for each cofactor stands for the activity. For each cofactor cube, top left: WT, top right: H43L, bottom left: A290I, bottom right: H43L/A290I. (a) Natural cofactors and NMN^+ are shown in purple. (b) tsNCBs are shown in cyan. The evaluation of cofactor spectrum was carried out under following conditions: 50 mM PBS buffer (pH 7.5) and 30℃, with 1a (5 mM) as substrate and different cofactors (7.5 mM) as cofactor. For NAD(P)^+ and NMN^+, 0.05 µg enzyme was added, and for tsNCBs, 5 µg enzyme was added. The results were analyzed by HPLC after 1 h reaction
(§2) Specific activity of SpADH2 in cofactor spectrum study was determined by HPLC analysis. PBS (pH 7.5) buffer was pre-heated at 30°C for 15 min. For NAD(P)^+ and NMN^+, 0.05 µg SpADH2 was added to PBS buffer (100 µL). For tsNCBs, 5 µg SpADH2 was added. A final concentration of 7.5 mM cofactor was added to the reaction mixture. Finally, a final concentration of 5 mM substrate was added to start the reaction. The reactions were conducted at 30°C.
(§3) One unit of enzyme activity is defined as the amount of enzyme required to form 1 µmol 1b per minute at pH 7.5 and 30°C. Same reaction without cofactor was used as a blank control.

SpADH2 [3] = assay: Cofactor spectrum of syringyl alcohol oxidation (HPLC specific activity), WT; assay type: biochemical, Sphingobium sp. SYK-6; conditions: 1a 5 mM, cofactor 7.5 mM, pH 7.5, 30℃; for utilization of the tsNCB by SpADH2 (in words): 5 µg SpADH2, 1 h
Protocol: Fig. 2 Cofactor spectrum of syringyl alcohol oxidation catalyzed by SpADH2. The darkness of the background color for each cofactor stands for the activity of SpADH2 utilizing various cofactors. (a) NAD(P) ^+ and NMN^+ are shown in purple background. (b) tsNCBs are shown in cyan background. The evaluation of cofactor spectrum of SpADH2 was carried out under following conditions: 50 mM PBS buffer (pH 7.5) and 30℃, with 1a (5 mM) as substrate and different cofactors (7.5 mM) as cofactor. For NAD(P)^+ and NMN^+, 0.05 µg SpADH2 was added, and for tsNCBs, 5 µg SpADH2 was added. The results were analyzed by HPLC after 1 h reaction
as §2, §3

[4] = system: NC(=O)c1ccc[n+]([C@@H]2O[C@H](COP(=O)([O-])OP(=O)(O)OC[C@H]3O[C@@H](n4cnc5c(N)ncnc54)[C@H](O)[C@@H]3O)[C@@H](O)[C@H]2O)c1; assay: Cofactor kinetic assay, WT; assay type: biochemical, Sphingobium sp. SYK-6; conditions: other: WT, cofactor (= label) varied, 1a fixed at 5 mM, pH 7.5, 30°C
Protocol: (§4) Specific activity of SpADH2 in substrate spectrum study was measured spectrophotometrically. PBS (pH 7.5) buffer was pre-heated at 30°C for 15 min. For NAD^+, 0.05 µg SpADH2 was added to the PBS buffer (100 µL), and a final concentration of 2 mM NAD^+ was added. For tsNCBs cofactor p-BANA^+, 5 µg SpADH2 and a final concentration of 7.5 mM p-BANA^+ was added. The mixture was carried out in a 96-well microplate, and a final concentration of 5 mM substrate was added to start the reaction. The microplate was incubated in 30°C for 1 h. Florescent probes (2-[2-(1,4-dihydro-1-methyl-3-quinolinyl)ethenyl]-1,3,3-trimethyl-3H-indolium) in a final concentration of 0.2 mM (100 µL) was added (Scheme S1), and the microplate was placed in a microplate reader immediately for measurement under 537 nm (Fomin et al. [2016]).
(§5) Kinetic analysis of SpADH2 and its variants were carried out following Michaelis-Menten equation or Michaelis-Menten excess substrate inhibition equation. For of the substrate kinetic assays, concentrations of cofactors were fixed at 5 mM for NAD^+ and 7.5 mM for p-BANA^+. For cofactor kinetic assays, the concentration of 1a was fixed at 5 mM.
(§6) Specific activity was determined spectrophotometrically as above except that gradient 1a (0−20 mM) or cofactor (0−35 mM) concentrations were applied.
(§7) Cofactor specificity ratio (CSR) represents the ratio of catalytic efficiency of p-BANA^+ to NAD^+ for each enzyme, and relative specificity (RS) stands for the CSR ratio of variants to WT (King et al. [2020]).

SpADH2 WT [5] = molecular target: T1, SpADH2 WT (Sphingobium sp. SYK-6, UniProt G2IIZ8); assay: Cofactor kinetic assay, WT; assay type: biochemical; conditions: cofactor (= label) varied, 1a fixed at 5 mM
T1 sequence (G2IIZ8 1-372): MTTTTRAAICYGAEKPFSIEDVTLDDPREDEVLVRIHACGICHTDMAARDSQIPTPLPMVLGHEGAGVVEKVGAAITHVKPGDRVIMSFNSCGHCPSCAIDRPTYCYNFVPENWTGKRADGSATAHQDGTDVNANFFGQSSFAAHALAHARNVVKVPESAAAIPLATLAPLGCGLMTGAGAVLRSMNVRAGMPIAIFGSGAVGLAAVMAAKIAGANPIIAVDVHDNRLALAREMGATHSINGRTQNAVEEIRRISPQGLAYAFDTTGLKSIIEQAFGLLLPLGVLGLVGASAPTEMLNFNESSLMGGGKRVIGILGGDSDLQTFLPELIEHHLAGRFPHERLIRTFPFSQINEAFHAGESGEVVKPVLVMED
Protocol: as §4, §5, §6, §7

SpADH2 variant A290I [6] = assay: Cofactor kinetic assay, A290I; assay type: biochemical, Sphingobium sp. SYK-6
Protocol: as §4, §5, §6, §7

SpADH2 variant H43L [7] = assay: Cofactor kinetic assay, H43L; assay type: biochemical, Sphingobium sp. SYK-6; conditions: cofactor (= label) varied, 1a fixed at 5 mM
Protocol: as §4, §5, §6, §7

SpADH2 WT [8] = molecular target: T1, SpADH2 WT; assay: Substrate kinetic assay, WT; assay type: biochemical; conditions: 1a varied, cofactor (= label) fixed: 5 mM NAD^+ or 7.5 mM p-BANA^+
Protocol: as §4, §5, §6, §7

[9] = system: SpADH2 variant H43L/A290I; assay: Cofactor kinetic assay, H43L/A290I; assay type: biochemical, Sphingobium sp. SYK-6; conditions: cofactor (= label) varied, 1a fixed at 5 mM
Protocol: as §4, §5, §6, §7

[10] = system: SpADH2 variants (H43L, A290I, H43L/A290I); assay: Cofactor spectrum (HPLC specific activity), all variants together; assay type: biochemical, Sphingobium sp. SYK-6; conditions: 1a 5 mM, cofactor 7.5 mM, pH 7.5, 30℃
Protocol: as §1, §2, §3

[11] = system: SpADH2 variant H43L/A290I; assay: Substrate kinetic assay, H43L/A290I; assay type: biochemical, Sphingobium sp. SYK-6
Protocol: as §4, §5, §6, §7

SpADH2 variant H43L [12] = assay: Substrate kinetic assay, H43L; assay type: biochemical, Sphingobium sp. SYK-6; conditions: 1a varied, cofactor (= label) fixed: 5 mM NAD^+ or 7.5 mM p-BANA^+
Protocol: as §4, §5, §6, §7

SpADH2 variant A290I [13] = assay: Substrate kinetic assay, A290I; assay type: biochemical, Sphingobium sp. SYK-6
Protocol: as §4, §5, §6, §7

SpADH2 variant H43L [14] = assay: Cofactor spectrum (HPLC specific activity), variant H43L; assay type: biochemical, Sphingobium sp. SYK-6; conditions: 1a 5 mM, cofactor 7.5 mM, pH 7.5, 30℃, 5 µg enzyme
Protocol: as §1, §2, §3

[15] = 1a varied, cofactor (= label) fixed: 5 mM NAD^+ or 7.5 mM p-BANA^+
[16] = substrate kinetics, cofactor = label

For `NC(=O)c1ccc[n+](CCCc2ccccc2)c1` [P3NA^+, 3-carbamoyl-1-(3-phenylpropyl)pyridin-1-ium], the “utilization of the NCB by SpADH2 (in words)” value (SpADH2 [1]) was “could not be utilized”, the “utilization of the tsNCB (in words)” value [2] was “acquired capability of utilizing” and the “utilization of the tsNCB by SpADH2 (in words)” value (SpADH2 [3]) was “No detectable activity”.

SpADH2 WT (Sphingobium sp. SYK-6) gave a Km [4] of 28 ± 3 µM.

With `NC(=O)c1ccc[n+]([C@@H]2O[C@H](COP(=O)([O-])OP(=O)(O)OC[C@H]3O[C@@H](n4cnc5c(N)ncnc54)[C@H](O)[C@@H]3O)[C@@H](O)[C@H]2O)c1` [NAD^+, reference compound] the kcat (SpADH2 WT [5]) was 58.7 ± 1.5 min^− 1, the kcat (SpADH2 variant A290I [6]; cofactor (= label) varied, 1a fixed at 5 mM) was 28.3 ± 0.6 min^− 1 and the Km (SpADH2 variant A290I [6]; cofactor (= label) varied, 1a fixed at 5 mM, pH 7.5, 30°C) was 9 ± 1 µM. The “fold higher catalytic efficiency (kcat/Km) than WT” value (SpADH2 variant A290I [6]; cofactor kinetics, cofactor = label) was 1.5 fold, the kcat (SpADH2 variant H43L [7]) was 57.8 ± 1.2 min^− 1 and the Km (SpADH2 variant H43L [7]; pH 7.5, 30°C) was 99 ± 8 µM. The “specific activity of SpADH2 with the cofactor” value (SpADH2 [3]; 0.05 µg SpADH2, 1 h) was 4.40 U/mg, the kcat (SpADH2 WT [8]) was 134 ± 2.9 min^− 1 and the kcat [9] was 12.6 ± 0.2 min^− 1. The Km ([9]; pH 7.5, 30°C) was 365 ± 25 µM, the “catalytic activity of all variants with the cofactor (in words)” value [10] was “relatively lower catalytic activity” and the kcat [11, 15] was 18.9 ± 0.2 min^− 1. For the same compound, the “fold improvement in substrate inhibition (Ki) vs WT” value [11, 16] was “up to 9 fold”, the kcat (SpADH2 variant H43L [12]) was 102 ± 2.3 min^− 1 and the kcat (SpADH2 variant A290I [13]; [15]) was 41.4 ± 1.4 min^− 1. The “substrate inhibition (in words)” value (SpADH2 variant A290I [13]; [16]) was “no substrate inhibition was observed”.

`NC(=O)c1ccc[n+](CCc2ccccc2)c1` [P2NA^+, 3-carbamoyl-1-phenethylpyridin-1-ium] was tested, and the “utilization of the NCB by SpADH2 (in words)” value (SpADH2 [1]) was “could not be utilized”, the “utilization of the tsNCB (in words)” value (SpADH2 variant H43L [14]) was “exhibited activity” and the “utilization of the tsNCB by SpADH2 (in words)” value (SpADH2 [3]) was “No detectable activity”.
